According to patent publication US20230405134A1, “NOVEL PROTAC CHIMERIC COMPOUND, AND PHARMACEUTICAL COMPOSITION COMPRISING SAME FOR PREVENTING, AMELIORATING, OR TREATING DISEASES THROUGH TARGET PROTEIN DEGRADATION” (POSTECH RESEARCH AND BUSINESS DEVELOPMENT FOUNDATION, priority 2020, published 2023):
Where a SMILES comes first, the peptide text is derived from it. Bridges are numbered along the chain shown (N, C = ends). [ ]: non-standard residue; d: D form. Cha = N[C@@H](CC1CCCCC1)C(=O)O; S5 = C=CCCC[C@](C)(N)C(=O)O

Assays:
UBR box = biological target: T1, UBR box (Saccharomyces cerevisiae, UniProt P19812); assay: Competitive fluorescence polarization (FP) assay against fluorescein-labeled RLAA peptide; assay type: binding, S. cerevisiae
T1 construct: UBR box (residues 113-194) in the UBR1 E3 ubiquitin ligase of S. cerevisiae; made in house
T1 sequence (P19812 113-194): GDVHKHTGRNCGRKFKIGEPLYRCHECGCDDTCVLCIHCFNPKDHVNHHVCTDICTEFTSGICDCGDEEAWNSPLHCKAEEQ
Procedure: An expression plasmid of the PAS-B domain of human SRC-1 (residues 257-385) tagged with His6 was provided by Professor John. A. Robinson. (ChemBioChem 2008, 9, 1318-1322). The plasmid was transformed into BL21 (DE3) pLysS cells, and the protein was cultured in Luria-Bertani broth medium and induced with 0.5 mM IPTG at 18° C. for 16 hours. Cell disruption was performed by ultrasonic treatment in a buffer (50 mM Tris-HCl pH 8.0, 200 mM NaCl and 1 mM TCEP), and insoluble materials were removed by centrifugation. HisTrap™ column (GE Healthcare, 17-5255-01) chromatography was performed on the buffer and 500 mM of imidazole was applied for elution. In order to remove the His6-tag, TEV protease was used and the cleaved samples were loaded in HisTrap™ as described above. The SRC-1 was further purified by size exclusion chromatography (HiLoad™ 16/600 Superdex 75 pg) in a final buffer of 20 mM Tris-HCl pH 7.5, 150 mM NaCl and 1 mM TCEP. The expression and purification of the UBR box (residues 113-194) in the UBR1 E3 ubiquitin ligase of S. cerevisiae was performed in the previous manner. (Nat. Struct. Mol. Biol. 2010, 17, 1175-1181).
A competitive fluorescence polarization (FP) assay was performed to evaluate the binding affinity of ND1-YL2 to the target protein. A fluorescently labeled 15-mer STAT-6 peptide (100 nM) was cultured with the PAS-B domain (5 μM) of SRC-1 in a binding buffer (50 mM HEPES, pH 7.4, 150 mM NaCl, and 0.01% Tween 20). After being placed in black Costar 384-well plates for 30 minutes, they were treated with various concentrations of YL2 and ND1-YL2. After further incubation for 1 hour, the polarization of fluorescence was measured by a Tecan F200 microplate reader (excitation wavelength: 485 nm; emission wavelength: 535 nm). IC50 values were determined using non-linear regression and fitted with GraphPad Prism® 4 software using the following equation: Y=Bottom+(Top-Bottom)/(1+10^X-LogIC50) (FIG. 11A). […] The binding affinity was calculated as described above (FIG. 11B).

MDA-MB-231 cells = assay: Gap closure migration assay; assay type: cell-based, human; conditions: 20 μM, 72 hours
Procedure: Based on the results that the SRC-1 degradation effectively affects the transcription mediated by SRC-1 (FIGS. 18A and 18B), it was predicted that ND1-YL2 would exert an inhibitory effect on downstream signaling pathways such as increased cancer cell migration and invasion. To test this, we first performed a gap closure migration assay using an invasive MDA-MB-231 cell line. MDA-MB-231 cells (70 μL of 4×10^5 cells/mL) were seeded in culture insert 2 wells (ibidi, 80209) pre-inserted into p-dishes (ibidi) under the conditions of 37° C. and 5% CO2. The culture insert 2 wells was gently removed with sterile tweezers. The cells were treated with DMSO, YL2 (20 […]), RLAA (20 μM) or ND1-YL2 (20 μM) in Opti-MEM medium for 72 hours. Images were obtained by a camera (Olympus) attached to an optical microscope. The cells were grown in the culture insert wells, and the inserts were removed to create intercellular gaps inside the wells. Subsequently, after treated with DMSO, YL2, RLAA peptide or ND1-YL2, the cells were cultured for 72 hours and the degree of cell migration was observed. The cell migration was quantified by analyzing the images of cells filling the gap.

HEK293T = assay: Cell viability assay; assay type: cell-based; conditions: various concentrations, 48 hours
Procedure: To further confirm the above results, an MTT cell viability assay was performed. MDA-MB-231 (1×10^4 cells/well), HEK293T (1×10^4 cells/well) and Colo205 (2×10^4 cells/well) cells were seeded in a 96-well plate, and cultured under the conditions of 37° C. and 5% carbon dioxide. After 24 hours, the cells were washed twice with DPBS and treated with DMSO or various concentrations of ND1-YL2 in Opti-MEM medium for 48 hours. Cell viability was measured by the Cyto X cell viability assay kit (LPS solution) according to the manufacturer's instructions.

CSF-1 = CSF-1 mRNA level by RT-qPCR in MDA-MB-231 cells; assay type: cell-based, human; conditions: 12 hours
From the text: The pharmacological effects on SRC-1 dependent signal transmission were explored using the previously discovered SRC-1 degrading substance. The SRC-1 is overexpressed in various cancers and plays a pivotal role in increasing cell migration and invasion by regulating the expression of related genes. Therefore, when treated with ND1-YL2, an SRC-1 degrading substance, the expression of genes stimulated by SRC-1, such as colony stimulating factor-1 (CSF-1), a gene encoding the cytokine CSF-1 that induces cell differentiation and migration, will be suppressed. To confirm this, MDA-MB-231 cells were treated with DMSO and various concentrations of ND1-YL2, YL2 or N-degron tetrapeptide for 12 hours, and the mRNA level of CSF-1 was normalized to 18S level. Confirmation was made using quantitative real-time polymerase chain reaction (RT-qPCR). MDA-MB-231 cells were seeded at 2×10^5 cells per well. After 24 hours, compounds (YL2, RLAA or ND1-YL2) were treated in Opti-MEM medium for 12 hours. Subsequently, general mRNA isolation was performed using TRI reagent (Takara), and total mRNA was isolated from the cells. The absorbance of total mRNA was measured with a Tecan F200 Nanophotometer, and reverse transcription was performed using AccuPower RocketScript Cycle RT PreMix (Bioneer). Quantitative real-time PCR for CSF-1, E-Cadherin and 18S was performed using a StepOnePlus Real-Time PCR System and SYBR Green mix (Applied Biosystems) according to the manufacturer's manual.

SRC-1 = SRC-1 (Homo sapiens, UniProt Q15788); assay: SRC-1 expression level in MDA-MB-231 cells by Western blot; assay type: cell-based; parameters: endogenous in cells; host or cells: MDA-MB-231
Chain of SRC-1 (Q15788 whole entry): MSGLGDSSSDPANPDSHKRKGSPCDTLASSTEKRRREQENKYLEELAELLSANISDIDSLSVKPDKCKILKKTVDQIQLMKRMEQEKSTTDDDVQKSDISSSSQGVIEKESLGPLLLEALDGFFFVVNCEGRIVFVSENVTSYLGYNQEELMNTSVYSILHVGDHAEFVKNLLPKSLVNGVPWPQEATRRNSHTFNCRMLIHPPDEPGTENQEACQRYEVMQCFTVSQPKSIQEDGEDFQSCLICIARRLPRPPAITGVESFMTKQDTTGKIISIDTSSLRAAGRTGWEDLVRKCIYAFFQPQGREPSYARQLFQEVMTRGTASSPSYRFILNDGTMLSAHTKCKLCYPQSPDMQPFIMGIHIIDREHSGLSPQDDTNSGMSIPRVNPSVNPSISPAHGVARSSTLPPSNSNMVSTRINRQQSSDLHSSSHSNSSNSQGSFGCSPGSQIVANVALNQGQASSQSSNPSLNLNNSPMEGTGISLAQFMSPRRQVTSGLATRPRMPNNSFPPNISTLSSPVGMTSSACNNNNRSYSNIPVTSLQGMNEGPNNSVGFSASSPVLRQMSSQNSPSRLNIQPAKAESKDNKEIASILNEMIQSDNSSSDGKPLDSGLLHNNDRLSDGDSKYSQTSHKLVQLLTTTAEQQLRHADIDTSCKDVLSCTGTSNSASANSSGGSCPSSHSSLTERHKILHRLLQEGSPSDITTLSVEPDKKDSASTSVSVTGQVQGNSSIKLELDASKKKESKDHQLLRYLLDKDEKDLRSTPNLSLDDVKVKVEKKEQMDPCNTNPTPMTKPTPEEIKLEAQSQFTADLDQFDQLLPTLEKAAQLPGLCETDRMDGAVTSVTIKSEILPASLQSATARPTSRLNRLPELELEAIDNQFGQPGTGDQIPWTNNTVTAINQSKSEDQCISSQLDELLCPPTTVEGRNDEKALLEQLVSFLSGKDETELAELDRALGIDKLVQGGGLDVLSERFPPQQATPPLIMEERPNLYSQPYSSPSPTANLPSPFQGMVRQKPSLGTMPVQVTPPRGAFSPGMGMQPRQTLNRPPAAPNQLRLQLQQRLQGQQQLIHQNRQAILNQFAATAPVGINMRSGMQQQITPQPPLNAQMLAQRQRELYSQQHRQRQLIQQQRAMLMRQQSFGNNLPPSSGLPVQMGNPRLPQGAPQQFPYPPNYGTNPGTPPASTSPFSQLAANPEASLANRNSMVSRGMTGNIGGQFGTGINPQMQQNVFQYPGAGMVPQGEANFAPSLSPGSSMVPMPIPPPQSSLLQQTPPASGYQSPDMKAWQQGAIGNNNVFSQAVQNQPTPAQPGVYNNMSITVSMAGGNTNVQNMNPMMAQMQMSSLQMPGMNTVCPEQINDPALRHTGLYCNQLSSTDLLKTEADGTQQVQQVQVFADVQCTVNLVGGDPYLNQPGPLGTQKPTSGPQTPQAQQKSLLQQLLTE

## CC(C)C[C@H](NC(=O)[C@H](C)NC(=O)[C@H](C)NC(=O)[C@H](C)NC(=O)[C@H](C)NC(=O)[C@H](CC(C)C)NC(=O)[C@@H](N)CCCNC(=N)N)C(=O)N[C@@H](CC(C)C)C(=O)N1CCC[C@H]1C(=O)N1CCC[C@H]1C(=O)N[C@H](C(=O)N[C@@H](CCC(=O)O)C(=O)N[C@@H](CCC(N)=O)C(=O)N[C@@H](CC(=O)O)C(=O)N[C@@H](CC(C)C)C(=O)N[C@@]1(C)CCC/C=C\CCC[C@@](C)(C(=O)N[C@@H](Cc2ccc(O)cc2)C(N)=O)NC(=O)[C@H](CC2CCCCC2)NC(=O)[C@H](CC(C)C)NC(=O)[C@H](CCCCN)NC1=O)[C@@H](C)O [ND1-YL2] (H-RLAAAALLPPTEQDL[S5]KL[Cha][S5]Y-NH2; staple (Z) 16-20)
UBR box
  Improved affinity for the UBR box compared to the RLAA tetrapeptide: approximately 3 fold
  Ki: 1480 nM
UBR box; ND1-YL2 binds less strongly to its E3 ligase than CL1-YL2
  Difference in binding affinity for target E3 ligase compared to CL1-YL2: ~10 fold
MDA-MB-231 cells
  Existing gaps maintained (cell migration): about 80%
HEK293T
  Effect on cell survival: did not significantly affect the survival
CSF-1
  Effect on CSF-1 expression (mRNA normalized to 18S): downregulated CSF-1 expression
SRC-1; 20 μM
  Selective degradation of SRC-1 over SRC-3: selectively degraded only SRC-1
  Time after treatment at which SRC-1 degradation was evident: 8 h
  Time for which SRC-1 degradation was maintained without detectable recovery: 24 h
SRC-1; 20 μM, 12 hours
  SRC-1 degradation, single agents compared: degradation of SRC-1 appeared only in ND1-YL2
SRC-1; 20 μM, after washing
  Time to restoration of SRC-1 expression to the original level after removal of compound: ≤ 12 h
SRC-1; various concentrations, Western blot
  SRC-1 degradation: strongest activity among the synthesized and treated compounds
SRC-1; various concentrations, Western blot, read-out: DC50 for reduction of SRC-1 expression level
  DC50: ~10 µM
SRC-1; with proteasome inhibitor MG-132 (5 μM), 12 hours
  SRC-1 degradation when treated together with MG-132: did not show the effect of degrading SRC-1
